The values below come from publication PMC4922569, “Antifibrotic Effects of the Dual CCR2/CCR5 Antagonist Cenicriviroc in Animal Models of Liver and Kidney Fibrosis” (PLoS ONE, 2016).

Structures can show the parent of a compound that is named as a salt.

For assay [1], the system named is TAA-induced liver fibrosis. The assay is described as follows: Rat model of thioacetamide (TAA)-induced liver fibrosis. The note with it: for Reduction in liver collagen deposition vs vehicle control: picrosirius red; for Reduction in protein expression of alpha-SMA vs vehicle control / Reduction in protein expression of collagen type 1 vs vehicle control: western blot, not statistically significant. In kind it is in vivo. On the procedure: The TAA model is commonly used for the evaluation of treatment at various stages of disease, from inflammation to cirrhosis. The protocol was approved by the Mount Sinai IACUC (approval number: LA12-00318) and animals were maintained according to the NIH guidelines. Anesthesia was performed with 1–5% isoflurane through inhalation; surgery was terminal.
Using male Sprague-Dawley rats (n = 72, 10–12 weeks of age; Harlan Laboratories, USA), fibrosis was induced by IP administration of TAA at a dose of 150 mg/kg three times per week for 8 weeks. Rats (n = 4–8/group) received vehicle control, CVC 30 mg/kg/day (CVC30) or CVC100 QD PO during Weeks 0–8 (early intervention), Weeks 4–8 (established fibrosis) or Weeks 8–12 (cirrhosis reversal) and were sacrificed at Weeks 8, 8 or 12, respectively (S1 Table). Study endpoints included: body and liver weights, liver biochemistry (e.g. serum alanine and aspartate aminotransferase [ALT/AST]), extracellular matrix protein expression in liver tissue (collagen type 1 and alpha-SMA), mRNA expression (collagen type 1, alpha-SMA, beta-platelet-derived growth factor-beta receptor, TGF beta-receptor, matrix metalloproteinase 2, tissue inhibitor of metalloproteinases 1 [TIMP1] and 2 [TIMP2]) and liver morphology. For liver-function testing, plasma samples were obtained from blood collected from the vena cava. Livers were sectioned and fixed in 3.7% formalin, embedded in paraffin, cut at […] thickness and stained with hematoxylin and eosin (H&E) for histological examination.
In the TAA model, serum ALT/AST levels were measured using VITROS® 5,1 FS (Ortho Clinical Diagnostics, USA), with plasma diluted with VITROS® 7% bovine serum albumin if needed. In the NASH model, plasma ALT levels were measured by FUJI DRI-CHEM 7000 (Fujifilm, Japan) and plasma CCL2 concentration quantified by the mouse CCL2/JE/MCP-1 immunoassay kit (R&D, USA).
Collagen deposition (the extent of fibrosis) was visualized in liver/kidney sections with picrosirius red staining. In the TAA model, collagen quantification was performed using computerized Life Science morphometry system (BIOQUANT, USA) on a total of 36 images per animal at 100x magnification (four picrosirius red-stained slides per animal, with nine images taken randomly per slide).
In the TAA model, total protein was extracted from liver cells and expression levels of collagen type 1 and alpha-SMA were assessed by western blotting. Protein expression levels were normalized to the reference protein (glyceraldehyde-3-phosphate dehydrogenase [GAPDH] or calnexin).
In the hepatic-fibrosis models, RNA was extracted from liver tissues and purified, and 1 μg of total mRNA was reverse-transcribed into complementary DNA. Expression levels were determined by quantitative polymerase chain reaction (PCR) (iQ™ SYBR® Green Supermix [Bio-Rad Laboratories, USA] on the LightCycler® 480 Real-Time PCR System [Roche, Switzerland]) in the TAA model at Week 8 (early intervention and established fibrosis) and Week 12 (cirrhosis reversal), and by real-time PCR (PCR Dice® and SYBR® Premix Ex Taq™ [Takara Bio Inc., Japan]) at Week 9 in the NASH model.
Relative mRNA expression levels were normalized to the following reference genes: TAA model, GAPDH; NASH model, 36B4 (gene symbol: Rplp0); UUO model, hypoxanthine phosphoribosyltransferase.
Data are presented as ±standard error of the mean (SEM) in the TAA model. Statistical significance was determined by the two-tailed Student’s t test.
For orientation: Immunoblotting shows a protein as a band on a membrane.

For a further assay, the system named is CCR5. The note with it: cited from earlier work.
For assay [2], the system named is monocyte/macrophage recruitment. As to the kind of experiment: Thioglycollate (TG)-induced mouse model of peritonitis: peritoneal lavage monocyte/macrophage counts. In kind it is in vivo. The note with it: for Decrease in peritoneal lavage monocyte/macrophage counts compared to vehicle control: 48 h post-TG. As for the experimental part: A murine thioglycollate (TG)-induced model of peritonitis, where acute inflammation induced by intraperitoneal (IP) injection of TG results in a rapid increase in monocyte/macrophage migration into the peritoneal cavity, was employed to assess the effects of CVC on cell recruitment in vivo. The protocol was approved by the IACUC of Charles River Laboratories Preclinical Services, Montreal (PCS-MTL). The care and use of animals was conducted in accordance with the guidelines of the US National Research Council and the Canadian Council on Animal Care.
Male C57BL/6 mice (n = 44; 8–10 weeks of age; Charles River Laboratories, Canada) were allocated to receive treatments via oral gavage (PO) on Days 1–5 in the following groups: non-disease control, vehicle control twice daily (BID), CVC 5 mg/kg/day (CVC5) BID, CVC 20 mg/kg/day (CVC20) BID, CVC 100 mg/kg/day (CVC100) BID, CVC20 QD, and positive control dexamethasone (corticosteroid known to reduce inflammation in a variety of animal models) 1 mg/kg QD (S1 Table). On Day 4, peritonitis was induced via IP injection of TG 3.85% (1 mL/animal) 2 hours post-dose in all groups except non-disease controls. Study endpoints included: peritoneal lavage cell counts and pharmacokinetic (PK) evaluation. Animals were sacrificed 48 hours post-TG injection by isoflurane inhalation, and peritoneal lavage and blood samples (0.7 mL) were collected. Differential cell counts were assessed in peritoneal lavage samples using an Advia® Hematology System (Siemens Healthcare Diagnostics, USA) with multispecies software and an analysis software designed for mouse peritoneal fluid on Advia® 120 (LabThruPut, USA). A 0.3 mL aliquot of the blood sample was processed to plasma for PK analysis.
In the peritonitis mouse model, one-way analysis of variance with post-hoc Dunnett’s test was performed, using GraphPad Prism® (GraphPad Software, Inc., USA), on differential cell counts obtained from lavage in treatment groups versus the vehicle-control group. For the ex vivo migration of mouse monocytes, statistical significance was determined by a Student’s t test.

With `CCCCOCCOc1ccc(-c2ccc3c(c2)/C=C(/C(=O)Nc2ccc([S@@+]([O-])Cc4cncn4CCC)cc2)CCCN3CC(C)C)cc1` [CVC, cenicriviroc mesylate], the “mRNA expression of the fibrosis markers assessed, CVC vs vehicle control” value in assay [1] (TAA model) was “no significant changes”. Further, in assay [1] (TAA model, all groups), the “ALT levels, CVC-treated vs vehicle-control groups” value is “no significant differences”. Also, in assay [1] (advanced disease cirrhosis group), the “Reductions in collagen type 1 and alpha-SMA protein expression” value was “No reductions”. Moreover, in assay [1] (all TAA groups), the “Histologic differences between groups, H&E-stained liver sections” value is “No histologic differences”. In addition, the “Reduction in collagen deposition” value in assay [1] (cirrhosis-reversal group, CVC treatment started at Week 8 (Weeks 8-12)) is listed as “No significant reduction”. Also, the “Reduction in liver collagen deposition vs vehicle control” value in assay [1] (early intervention (Weeks 0-8), CVC30 QD PO) is 48.5%; in assay [1] (early intervention (Weeks 0-8), CVC100 QD PO), 37.5%; in assay [1] (established fibrosis (Weeks 4-8), CVC30 QD PO), 35.7%. In assay [1] (early intervention group, CVC30, p < 0.05), the “AST levels vs vehicle control” value is listed as “significantly decreased”. Also, the “Reduction in protein expression of alpha-SMA vs vehicle control” value in assay [1] (early intervention, CVC30) stood at 17%; in assay [1] (early intervention, CVC100), 22%; in assay [1] (established fibrosis, CVC30), 14%. The “Reduction in protein expression of collagen type 1 vs vehicle control” value in assay [1] (early intervention, CVC30) was determined as 29%; in assay [1] (early intervention, CVC100), 12%; in assay [1] (established fibrosis, CVC30), 30%. Also, in assay [1] (established fibrosis (Weeks 4-8), CVC100 QD PO), the “Significant antifibrotic effect (collagen deposition) observed” value is listed as “not”. Moreover, the “Occupancy for CCR5 (spleen) in proinflammatory monocytes” value with CCR5 (CVC 250 nM, murine cryopreserved PBMC ex vivo) was 87%. Also, in the assay on CCR5 (CVC concentrations of 250 nmol/L or higher, mouse monocytes and macrophages ex vivo), the CCR5 occupancy was over 87%. Moreover, the “Decrease in peritoneal lavage monocyte/macrophage counts compared to vehicle control” value in assay [2] (CVC5 (5 mg/kg/day) BID PO Days 1-5) was 5.7%; in assay [2] (CVC20 (20 mg/kg/day) BID PO Days 1-5), 45.2%; in assay [2] (CVC20 (20 mg/kg/day) QD PO Days 1-5) it was 26.0%; in assay [2] (CVC100 (100 mg/kg/day) BID PO Days 1-5), 76.5%. Besides, the “Greater reduction in monocyte/macrophage count compared to dexamethasone” value in assay [2] (CVC100 BID vs dexamethasone 1 mg/kg QD, p < 0.001) came out at 62.1%. In addition, the “Doses achieving statistically significant decrease in monocyte/macrophage recruitment” value in assay [2] (p < 0.05 vs vehicle control) is listed as at least 20 mg/kg/day.
